Experimental data: patent US20250136584A1, “Benzimidazole Or Azabenzimidazole Compound, Preparation Method Therefor And Use Thereof” (Chengdu Di'Ao Jiuhong Pharmaceutical Factory, priority 2022, published 2025)

What was measured:
hGLP1R mice = experiment: Glucose tolerance test in hGLP1R mice after single oral administration; assay type: in vivo; details: 1 mg/kg oral once; for onset of blood glucose reduction compared with comparative example compound DB03 / blood glucose reduction effect compared with comparative example compound DB03: FIG. 3 and FIG. 4; for blood glucose reduction effect compared with PF-06882961: glucose 2 g/kg i.p. 60 minutes later
Method: Genetically engineered hGLP1R mice, male, purchased from Biocytogen Jiangsu Gene Biotechnology Co., Ltd., were fasted overnight before the glucose tolerance test (IPTGG), without water deprivation. A solvent or corresponding compound was orally administered once, a glucose solution (2 g/kg) was intraperitoneally injected 60 minutes after administration, and a blood glucose value before administration of glucose (equivalent to a blood glucose value of 0 minute) and blood glucose values 15 minutes, 30 minutes, 60 minutes and 120 minutes after administration of glucose were measured. The solvent was 5% DMSO+40% PEG400+55% physiological saline, and a dosage of the compound was 1 mg/kg (n=3).

hERG potassium channel = target: T1, hERG potassium channel (Homo sapiens, UniProt Q12809); experiment: hERG test, patch clamp on HEK-293 cells stably expressing hERG potassium channel; assay type: cell-based; details: HEK-293 cell line stably expressing hERG, read-out: IC50 (μM) of inhibitory effect on hERG potassium channel current
T1 construct: host or cells: HEK-293 stably expressing hERG
Method: Test object: influences of compounds on an hERG potassium channel current were tested by a full-automatic patch clamp method.
• (1) An HEK-293 cell line stably expressing an hERG potassium channel was adopted, and hERG potassium channel cells were purchased from Creacell Company. • (2) The HEK-293 cell line stably expressing the hERG potassium channel was cultured in a DMEM culture medium containing 10% fetal bovine serum and 0.8 mg/mL G418 at 37° C. under a carbon dioxide concentration of 5%. • (3) Cell passage: the old culture medium was removed, and the cells were washed once with PBS, then added with 1 mL of TrypLE™ Express solution, and incubated at 37° C. for about 0.5 minutes. When the cells were separated from a dish bottom, about 5 mL of complete culture medium preheated at 37° C. was added. A cell suspension was gently blown with a straw to separate the aggregated cells. The cell suspension was transferred to a sterile centrifuge tube and centrifuged at 1000 rpm for 5 minutes to collect the cells. In amplification or maintenance of culture, the cells were inoculated into a 6 cm cell culture dish, and the number of cells inoculated into each cell culture dish was 2.5×10^5 cells (final volume: 5 mL). In order to maintain an electrophysiological activity of cells, a cell density should not exceed 80%. • (4) In patch clamp detection, before the test, the cells were separated by TrypLE™ Express, and 4×10^3 cells were spread on a cover slip and cultured in a 24-well plate (final volume: 500 μL). After 18 hours, the test was carried out for detection. Data analysis:
A current after an effect of each drug concentration and a blank control current
were standardized first, and then an inhibition rate
corresponding to each drug concentration was calculated. A mean number and a standard error were calculated for each concentration, and a semi-inhibitory concentration of each compound was calculated by the following equation: […]
A dosage-dependent effect was nonlinearly fitted by the above equation, wherein C represented a concentration of a test sample, IC50 represented a semi-inhibitory concentration, and h represented a Hill coefficient. Curve fitting and IC50 calculation were completed by IGOR software.

GLP1R = GLP1R (Homo sapiens, UniProt P43220); experiment: Agonist activity on GLP1R/CRE-LUC HEK293 cells (luciferase reporter, ONE-Glo); assay type: cell-based; details: for EC50: GLP1R/CRE-LUC HEK293 cells, 6 hours incubation, chemiluminescence signal; for activity compared with comparative example compounds PF-06882961, DB02, DB03 and DB06: from Table 1, also much higher than DB04 and DB05
Method: Logarithmically growing GLP1R/CRE-LUC HEK293 cells (purchased from Nanjing Cobioer) were digested, the digested cells were re-suspended in a DMEM+10% FBS culture medium, and a cell density was adjusted to be 3.5*10^5/mL. The cell solution was added into a 96-well cell culture plate by 100 µL/well, and the plate was cultured overnight in an incubator (37° C., 5% CO2).
A compound was dissolved with DMSO to prepare a storage solution at an initial concentration of 10 mM, an initial concentration of the small molecular compound was 0.2 mM, and the compound was diluted by 3 times and 10 points were diluted, while the 11th point was DMSO. Another 96-well plate was taken, added with 95 μL of cell culture solution (DMEM+10% FBS) in each well, then added with 5 μL of to-be-tested samples at different concentrations in each well, mixed evenly, and then added with 11 μL of to-be-tested samples at different concentrations in each well of the cell culture plate, and each sample had two wells. The culture plate was incubated in an incubator for 6 hours (37° C., […]). The 96-well cell culture plate was taken out, added with 100 μL of ONE-Glo™ reagent in each well, and incubated at room temperature for 10 minutes, and a chemiluminescence signal value was measured with an enzyme-labeled instrument. Data were processed and analyzed by Microsoft Excel and Graphpad Prism6 to obtain an EC50 value of the compound.

[1] = Pharmacokinetic studies in SD rats; assay type: in vivo; details: Sprague-Dawley (SD), rat, plasma
[2] = blood glucose curves and AUC (0 to 120 minutes)

T1 sequence (Q12809 whole entry): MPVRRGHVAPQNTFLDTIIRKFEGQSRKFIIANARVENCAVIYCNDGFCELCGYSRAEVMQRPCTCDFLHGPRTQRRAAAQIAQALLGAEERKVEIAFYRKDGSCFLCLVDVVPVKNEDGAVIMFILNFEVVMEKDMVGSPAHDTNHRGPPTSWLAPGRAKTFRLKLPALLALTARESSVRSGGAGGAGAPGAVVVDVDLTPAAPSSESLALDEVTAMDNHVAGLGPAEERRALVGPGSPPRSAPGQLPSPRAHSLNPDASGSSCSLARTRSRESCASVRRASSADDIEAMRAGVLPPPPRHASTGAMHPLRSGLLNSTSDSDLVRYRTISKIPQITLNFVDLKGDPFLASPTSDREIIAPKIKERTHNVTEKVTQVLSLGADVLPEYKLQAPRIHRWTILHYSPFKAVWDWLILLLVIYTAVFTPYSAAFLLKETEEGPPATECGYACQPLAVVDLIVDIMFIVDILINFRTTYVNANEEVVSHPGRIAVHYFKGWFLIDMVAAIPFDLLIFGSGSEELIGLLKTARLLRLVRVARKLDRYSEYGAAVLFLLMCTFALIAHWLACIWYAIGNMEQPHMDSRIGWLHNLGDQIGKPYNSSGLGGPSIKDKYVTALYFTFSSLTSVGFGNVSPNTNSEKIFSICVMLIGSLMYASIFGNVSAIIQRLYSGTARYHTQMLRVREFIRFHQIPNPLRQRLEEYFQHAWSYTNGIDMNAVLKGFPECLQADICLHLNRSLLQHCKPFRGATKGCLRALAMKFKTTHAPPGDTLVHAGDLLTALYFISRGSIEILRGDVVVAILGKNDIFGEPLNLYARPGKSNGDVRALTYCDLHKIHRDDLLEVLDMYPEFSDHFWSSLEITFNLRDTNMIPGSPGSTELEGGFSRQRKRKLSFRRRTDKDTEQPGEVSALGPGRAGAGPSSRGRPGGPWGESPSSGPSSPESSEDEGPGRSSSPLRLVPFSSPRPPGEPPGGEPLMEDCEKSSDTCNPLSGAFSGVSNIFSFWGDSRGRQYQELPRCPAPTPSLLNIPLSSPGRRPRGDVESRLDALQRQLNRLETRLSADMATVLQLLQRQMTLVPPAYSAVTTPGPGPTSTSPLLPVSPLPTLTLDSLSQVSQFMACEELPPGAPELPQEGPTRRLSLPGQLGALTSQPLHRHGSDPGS
Sequence of GLP1R (P43220 24-463): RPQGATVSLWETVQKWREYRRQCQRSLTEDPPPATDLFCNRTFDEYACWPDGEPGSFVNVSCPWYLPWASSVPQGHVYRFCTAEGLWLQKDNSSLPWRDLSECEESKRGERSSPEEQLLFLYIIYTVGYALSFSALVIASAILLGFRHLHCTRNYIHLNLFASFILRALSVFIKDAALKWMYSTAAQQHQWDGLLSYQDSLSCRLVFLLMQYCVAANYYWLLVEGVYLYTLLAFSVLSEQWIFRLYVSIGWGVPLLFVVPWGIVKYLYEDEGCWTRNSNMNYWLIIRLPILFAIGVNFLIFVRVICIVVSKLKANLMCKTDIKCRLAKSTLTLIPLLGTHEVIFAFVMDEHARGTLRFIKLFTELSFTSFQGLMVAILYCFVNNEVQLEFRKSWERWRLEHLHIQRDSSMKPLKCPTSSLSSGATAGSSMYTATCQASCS

Structure (SMILES)	EC50 (GLP1R) [µM]	activity compared with comparative example compounds PF-06882961, DB02, DB03 and DB06 (GLP1R)	half-life [1] [h]	onset of blood glucose reduction compared with comparative example compound DB05 (hGLP1R mice; FIG. 1 and FIG. 2)	onset of blood glucose reduction compared with comparative example compound DB03 (hGLP1R mice)	blood glucose reduction effect compared with PF-06882961 (hGLP1R mice; [2])	blood glucose reduction effect compared with comparative example compound DB05 (hGLP1R mice; blood glucose curves and AUC (0 to 120 minutes), FIG. 1 and FIG. 2)	blood glucose reduction effect compared with comparative example compound DB03 (hGLP1R mice; [2])	IC50 (hERG potassium channel) [µM]
O=C(O)c1ccc2nc(Cc3ccc(-c4cccc(OCc5ccc(Cl)c6ccoc56)n4)cc3F)n(C[C@@H]3CCO3)c2c1 [Compound 17]				took effect more quickly	took effect more quickly	significantly better	significantly better	absolutely better	> 30
O=C(O)c1ccc2nc(Cc3ccc(-c4ccc(F)c(OCc5ccc(Cl)c6ccoc56)n4)cc3F)n(C[C@@H]3CCO3)c2c1 [Compound 93]	0.00289	higher	6 to 10		took effect more quickly	significantly better		absolutely better	> 30
N#Cc1ccc(COc2cccc(C3CCN(Cc4nc5ccc(C(=O)O)cc5n4C[C@@H]4CCO4)CC3)n2)c(F)c1 [PF-06882961, reference compound]			3.13						9.35

Continued, in another order:

EC50 (GLP1R) [µM]	activity compared with comparative example compounds PF-06882961, DB02, DB03 and DB06 (GLP1R)	half-life [1] [h]	Structure (SMILES)	onset of blood glucose reduction compared with comparative example compound DB05 (hGLP1R mice; FIG. 1 and FIG. 2)	onset of blood glucose reduction compared with comparative example compound DB03 (hGLP1R mice)	blood glucose reduction effect compared with PF-06882961 (hGLP1R mice; [2])	blood glucose reduction effect compared with comparative example compound DB05 (hGLP1R mice; blood glucose curves and AUC (0 to 120 minutes), FIG. 1 and FIG. 2)	blood glucose reduction effect compared with comparative example compound DB03 (hGLP1R mice; [2])	IC50 (hERG potassium channel) [µM]
0.00096	higher	6 to 10	O=C(O)c1ccc2nc(Cc3ccc(-c4cccc(OCc5ccc(Cl)c6cc(F)oc56)n4)cc3F)n(C[C@@H]3CCO3)c2c1 [Compound 21]			significantly better			> 30
0.00089	higher	6 to 10	O=C(O)c1ccc2nc(Cc3ccc(-c4ccc(F)c(OCc5ccc(Cl)c6cc(F)oc56)n4)cc3F)n(C[C@@H]3CCO3)c2c1 [Compound 94]			significantly better			> 30
		6 to 10	O=C(O)c1ccc2nc(Cc3ccc(-c4cccc(OCc5ccc(Cl)c6cc(Cl)oc56)n4)cc3F)n(C[C@@H]3CCO3)c2c1 [Compound 99]			significantly better			> 30
0.00202	higher	6 to 10	O=C(O)c1ccc2nc(Cc3ccc(-c4ccc(F)c(OCc5ccc(Cl)c6cc(Cl)oc56)n4)cc3F)n(C[C@@H]3CCO3)c2c1 [Compound 100]		took effect more quickly	significantly better		absolutely better	> 30
		2.94	O=C(O)c1ccc2nc(Cc3ccc(-c4cccc(OCc5ccc(Cl)cc5F)n4)cc3F)n(C[C@@H]3CCO3)c2c1 [DB03, reference compound]						> 10
